Data on eight substances can be found in US10287581B2, “Cell penetrating peptides for intracellular delivery of molecules” (AADIGEN, LLC, priority 2011, dated 2019).

Like-named read-outs stand apart in the source and are kept apart here.

Data set [1] addresses SS-DNA: single-stranded DNA. In words: Binding of single-stranded DNA to VEPEP-6 peptides by fluorescence spectroscopy. On the procedure: (§1) FIG. 2: Binding of nucleic acid to VEPEP-6a as monitored by TRP-intrinsic fluorescence spectroscopy. Dissociation constants were calculated from data fitting. Nucleic acids used: double stranded DNA (45/35 mer), siRNA (19/19 or 25/25) and single stranded DNA (19 or 36 mer)
(§2) VEPEP-6 peptide form stable complexes with siRNA, single stranded and double stranded oligonucleotides. The binding of cargos to VEPEP-6 was monitored by fluorescence spectroscopy using the both intrinsic Trp group of VEPEP-6 (3 to 5 Trp-residues) and extrinsic fluorescently labeled cargoes (using Cy3, Cy5 or FITC). Fluorescence experiments were performed on a PTI spectrofluorimeter at 25° C. in a NaCl 154 mM buffer. Intrinsic Trp-fluorescence of VEPEP-6 was excited at 290 nm and emission spectrum was recorded between 310 and 400 nm, with a spectral band-pass of 2 and 8 nm for excitation and emission, respectively. FITC-fluorescence of labelled-siRNA or DNA was excited at 492 nm and emission recorded between 500 and 580 nm. For VEPEP-6/siRNA interaction, 0.5 μM of FITC-labelled siRNA was titrated by increasing concentrations of peptide. All measurements were corrected for the dilution and curve fitting were performed by using Grafit software (Erithacus). Curve fitting reveal that VEPEP-6 strongly binds the different cargoes with dissociation constant in the nanomolar range (Table 1 and FIG. 2).
(§3) Binding of nucleic acid to ST-VEPEP-6aa was monitored by fluorescence spectroscopy using both TRP-intrinsic and fluorescently labelled nucleic acids. Dissociation constants were calculated from data fitting. Nucleic acids used were double stranded siRNA (19/19 or 25/25) and single stranded DNA (36 mer).

Data set [2] concerns the target siRNA. Description: Binding of siRNA to VEPEP-6 peptides by fluorescence spectroscopy. On the procedure: as §1, §2, §3
Data set [3] can be described thus: Binding of AZT to VEPEP-6 by quenching of tryptophan fluorescence. The following applies: cargo AZT. The procedure: (§4) FIG. 3: Binding of small hydrophobic molecules to VEPEP-6 as monitored by fluorescence spectroscopy. The binding of Doxorubicin, AZT and Porphyrin to VEPEP-6 was monitored by following the quenching of tryptophan-intrinsic VEPEP-6 fluorescence and that of fluoresceine-labelled-Guanosine (FAM-G) by monitoring FAM-fluorescence. Dissociation constants were calculated from data fitting.
(§5) VEPEP-6 peptides also form stable particles with small aromatic and/or hydrophobic molecules including daunomycin, Paclitaxel, doxorubicin, AZT, porphyrin, FAM-G or fluorescent dyes (FIG. 3). The dissociation constant for small hydrophobic molecule ranges between 0.03 to 4 μM, depending on the nature of the dyes and of the peptides.

Data set [4] can be described thus: Binding of porphyrin to VEPEP-6 by quenching of tryptophan fluorescence. The following applies: cargo porphyrin. The procedure: as §4, §5
A short description of data set [5]: Binding of FAM-guanosine to VEPEP-6 by FAM fluorescence. The settings on record: cargo FAM-guanosine. The procedure: as §4
FIGS. 8A and 8B: (8A) Binding of small hydrophobic fluorescent molecules (SFM) to VEPEP-6 as monitored by fluorescence spectroscopy. In the present case, a fluorescently labeled nucleotide (fluorescein-labeled-Guanine) was used. Dissociation constants were calculated from data fitting. (8B) Effect of VEPEP-6 mediated doxorubicin on cancer cell viability. Dose responses of free (white bars) and VEPEP-6 mediated (grey bars) doxorubicin have been evaluated on the viability of U2OS and MCF7 cancer cells.
as §5

The test system of data set [6] is DD-DNA: double-stranded DNA. Description: Binding of double-stranded DNA to VEPEP-6 peptides by fluorescence spectroscopy. The following applies: cargo DD-DNA. The procedure:
as §1, §2

Data set [7] can be described thus: Binding of doxorubicin to VEPEP-6 by quenching of tryptophan fluorescence. The settings on record: cargo Doxorubicin. The procedure: as §4, §5
Data set [8] deals with cyclin B1. Description: Cyclin B1 silencing at protein (Western blotting) and mRNA (Quantigen) level. The class given is cell-based, Human. The settings on record: 200 nM siRNA complexed with VEPEP-6 at a 1/20 ratio. The procedure: FIGS. 6A-6C: VEPEP-6 dose response of Cyclin B1 silencing at the protein and mRNA levels on Hela (6A) and HS68 (6B) cells. Stock solution of VEPEP-6/siRNA ([…]) particles were prepared at a molar ratio of 1/20 (siRNA/VEPEP-6), and lower concentrations (from 200 nM to 0.125 nM) were obtained by serial dilution of the stock solution in PBS. HeLa (Panel A) and HS-68 (Panel B) cells (60% confluency) were overlaid with preformed complexes for 30 min, then fresh DMEM supplemented with 10% FCS was added directly to the cells, which were then returned to the incubator for 24 hrs. Cyclin B1 protein levels were determined by Western Blotting using Cdk2 as a control for quantification (white bars). Cyclin B1 mRNA levels were measured 12 hrs after transfection using Quantigen technology (black bars). Mismatched Cyc-B3 siRNA associated with VEPEP-6 (200 nM) and empty VEPEP-6 particles (20 μM) were used as a control. 6C: Dose-response of G2-arrest associated with Cyclin B1 silencing. HeLa (black bars) and HS68 (white bars) cells were treated with increasing concentrations of VEPEP-6/siRNA-Cyc-B1 from 0.25 nM to 20 nM. The cell cycle status was evaluated by FACS analysis. […]
Cyclin B1 mRNA and protein levels were determined 12 and 24 hrs following transduction, using Quantigen (Panomics Inc.) and Western blotting, respectively. […]
(Immunoblotting shows a protein as a band on a membrane.)

The mark [9] stands for this setting: cargo siRNA, 25° C., NaCl 154 mM buffer, read-out: Kd.

On to “Ac-X1LFLARWRsLLRSsLWRLLWK-cysteamide [ST-VEPEP-6aa]”, for which the Kd came out at 4 nM in data set [1] (single stranded nucleic acid (DNA 36 mer), read-out: dissociation constant) and 7 nM in data set [2] (double stranded nucleic acid (siRNA 19/19 or 25/25), read-out: dissociation constant).

Turning to “Ac-[βA/S]LFRALWRLLR[S/T]LWRLLW[K/R]-cysteamide [VEPEP-6a]”, the Binding result in data set [3] is “no”; in data set [4] it was “yes”; in data set [5], “no”; in data set [6] it was “yes”; in data set [1] (cargo SS-DNA) it was “yes”; in data set [2] (cargo siRNA), “yes”. Moreover, the Binding result in data set [7] is recorded as “yes”. For the same substance, the Kd was 4000 nM in data set [4]; 200 nM in data set [6]; 50 to 100 nM in data set [1] (cargo SS-DNA, read-out: Kd); 10 to 20 nM in data set [2] (setting [9]); 1000 nM in data set [7].

“Ac-[βA/S]LWRALWRLWR[S/T]LWRLLW[K/R]A-cysteamide [VEPEP-6b]”: the Binding result in data set [3] is “no”; in data set [4], “yes”; in data set [5] it was “no”; in data set [6], “yes”; in data set [1] (cargo SS-DNA) it was “yes”; in data set [2] (cargo siRNA), “yes”. Besides, the Binding entry in data set [7] is “yes”. Also, the Kd in data set [4] was 5000 nM; in data set [6], 200 nM; in data set [1] (cargo SS-DNA, read-out: Kd), 50 to 100 nM; in data set [2] (setting [9]), 10 to 20 nM; in data set [7], 700 nM.

For the substance “Ac-[βA/S]LWRALWRLWR[S/T]LWRLWR[K/R]A-cysteamide [VEPEP-6d]”, the Binding entry in data set [3], in data set [4], in data set [5], in data set [6], in data set [1] (cargo SS-DNA) and in data set [2] (cargo siRNA) was “yes” throughout. Also, the Binding result in data set [7] is recorded as “yes”. Besides, the Kd is 100 nM in data set [3]; 500 nM in data set [4]; 800 nM in data set [5]; 200 nM in data set [6]; 50 to 100 nM in data set [1] (cargo SS-DNA, read-out: Kd); 10 to 20 nM in data set [2] (setting [9]). Besides, the Kd in data set [7] came to 500 nM.

With “Ac-[βA/S]LWRALWRL[L/C/I]RNLWRLLW[K/R]A-cysteamide [VEPEP-6f]”, the Binding entry in data set [3], in data set [4], in data set [5], in data set [6], in data set [1] (cargo SS-DNA) and in data set [2] (cargo siRNA) was “yes” throughout. In data set [7], the Binding entry was “yes”. Moreover, the Kd in data set [3] was 2400 nM; in data set [4] it was 200 nM; in data set [5], 2800 nM; in data set [6], 200 nM; in data set [1] (cargo SS-DNA, read-out: Kd), 50 to 100 nM; in data set [2] (setting [9]), 10 to 20 nM. The same substance gave a Kd in data set [7] of 200 nM.

As to “Ac-[βA/S]LWRALWRL[L/C/I]R[S/T]LWRLWR[K/R]A-cysteamide [VEPEP-6c]”, the Binding entry in data set [3], in data set [4], in data set [5], in data set [6], in data set [1] (cargo SS-DNA) and in data set [2] (cargo siRNA) was “yes” each time. Also, in data set [7], the Binding entry is “yes”. The Kd in data set [3] was 300 nM; in data set [4], 1200 nM; in data set [5] it was 4000 nM; in data set [6], 200 nM; in data set [1] (cargo SS-DNA, read-out: Kd) it was 50 to 100 nM; in data set [2] (setting [9]), 10 to 20 nM. Also, the Kd in data set [7] came to 30 nM.

As for “Ac-[βA/S]LWRALWRL[L/I]RALWRLLW[K/R]A-cysteamide [VEPEP-6e]”, the Binding result in data set [3], in data set [4], in data set [5], in data set [6], in data set [1] (cargo SS-DNA) and in data set [2] (cargo siRNA) was “yes” throughout. Further, the Binding result in data set [7] is recorded as “yes”. Further, the Kd in data set [3] is 900 nM; in data set [4] it was 200 nM; in data set [5] it was 2300 nM; in data set [6], 200 nM; in data set [1] (cargo SS-DNA, read-out: Kd), 50 to 100 nM; in data set [2] (setting [9]) it was 10 to 20 nM. Moreover, the Kd in data set [7] is 500 nM.

For the substance “si-GAPDH: unrelated siRNA targeting GAPDH, SEQ ID No: 21/22 (chain 1 CAUCAUCCCUGCCUCUACUTT; chain 2 AGUAGAGGCAGGGAUGAUG; chemistry not given here)”, the “effect on cyclin B1 levels and cell cycle progression” value in data set [8] is listed as “no effect”.
